Assay results: patent US12246034B2, “Animal feed supplement and method” (CAN TECHNOLOGIES, INC., priority 2014, dated 2025)
Where two headings read alike, the source gives them in different places.

How the values were obtained:
sows [1] = details: for Probability of piglet Livability: 1-((stillborn + died pre weaning)/total pigs after cross fostering)
Excerpt: During lactation, sows were fed either the positive control or negative control standard lactation diet according to a step-up feeding schedule. Until farrowing the sows were fed a fixed amount of either the positive or negative controls of the standard lactation diet twice a day. After farrowing the amount of feed either the positive or negative controls of the standard lactation diet fed was increased gradually till a maximum of 8 kg/sow per day. The amount of which could be adjusted based on the appetite of the sow. Piglets were fed Ad libitum (no milk was provided other than from the sow a commercial creep feed (meal, dry) from day 4-16 of age and a pelleted commercial prestarter from day 16 till weaning. In total, 150 sows were allocated over the three rooms based on parity. Within 2 days after farrowing, litters were standardized to 13-14 piglets per sow.
The following measurements were recorded as shown in TABLE 1C: (i) sow weight and backfat thickness when entering the farrowing room (day 111 of gestation) and at weaning (22 days post farrowing); (ii) sow reproductive performance was recorded right after farrowing (number of piglets born total, alive, stillborn, mummified); (iii) piglets weights were recorded at birth, day 5 after birth and at weaning; (iv) creep feed intake of piglets between day 4 and weaning was recorded; (v) number of piglets alive at day 4 and at weaning were registered; (vi) when piglets died, the reason for dying was also registered; and (vii) interventions during the birth process (e.g. the use of planate, oxytocin and birth assistance).

sows [2] = details: for NBA (Number Born Alive) / TNB (Total Number Born) / Litter growth, 24 hour to 3 days / Litter growth, Start to 24 hour / Litter growth, Start to 3 days / Piglet weight, 24 hour / Piglet weight, 3 days / Piglet weight, Start / Birth weight: LS Means ± SEM; for NBD (Number Born Death), stillborn piglets / Mortality: log transformed, back-transformed to absolute values; for Litter weight, 24 hour / Litter weight, 3 days / Litter weight, Start: corrected for mortality and cross fostering; for Birth weight: litter
Procedure: A field trial was conducted on a commercial farm in Denmark with 650 highly productive Danbred sows (Landrace x Yorkshire) inseminated with a pure line Duroc boar, between Nov. 17, 2014 and Jan. 16, 2015. A total of 139 sows (total number before analyzes) were included in the trial, divided over 3 subsequent sow groups farrowing over a time span of 6 weeks. For all analyzes SAS software (version 9.3, SAS Institute Inc., Cary, N.C.) was used. Sows received a dry meal transition feed (from gestation to lactation), fed from day 111 of gestation till day 5 of lactation, and were allocated to one of the two treatment groups based on parity. […] The total amount of calcium was equal between both experimental treatments. Number born alive (NBA), stillborn and mummies, litter birth weight, as well as back fat of the sows before farrowing (day 110 of gestation) and at weaning (day 24 of lactation) were measured. Litter weights at 24 hours and 3 days after birth were measured as well. On day 3 after birth blood samples were taken from 6 piglets (2 biggest, 2 medium and 2 smallest) from 65 litters of their tails when they were cut and analyzed on immunoglobulin G (IgG) concentration. Placentas of the sows were collected after the farrowing process was finished, stored in freezers and afterwards scored on redness for an indication of the vascularization of these placentas.

sows [3] = details: 0.1% calcium nitrate in phase 1 diet, 19 May 2014 till 16 Aug. 2014
Procedure: 600 sows and all sows were fed two diets over the test period. The first diet (phase 1) was fed from approximately 5 days pre-farrowing until 5 days post-farrowing. The second diet (phase 2) was fed from day 5 post-farrowing until weaning.
The following measurements were recorded as shown in TABLE 2A: (i) gestation length; (ii) sow reproductive performance was recorded right after farrowing (number of piglets born total, alive, stillborn); (iii) piglet; (iv) total piglets weaned; (v) weaning weights; and (vi) piglets per sow per year; and […].

[4] = 0.1% Bolifor CNF in lactation diet, means
[5] = 0.1% Bolifor CNF, induction of sows as covariable
[6] = 0.1% Bolifor CNF, induction of sows as covariable, listed as calcium nitrate
[7] = piglets, 0.1% Bolifor CNF, corrected for lactation length
[8] = 0.1% Bolifor CNF in transition feed, listed as Bolifor CNF ®
[9] = 0.1% Bolifor CNF in transition feed, listed as Bolifor CNF®
[10] = 0.1% Bolifor CNF, listed as Bolifor CNF ®
[11] = 0.1% Bolifor CNF, listed as Bolifor CNF®

## O=[N+]([O-])[O-].O=[N+]([O-])[O-].[Ca+2] [Bolifor CNF, calcium nitrate]
Sows [1]; 0.1% Bolifor CNF in lactation diet
  Probability Born Mummified: 2.3%
Sows [1]; [4]
  Total born: 16.3
  Total born alive: 15.3
  Total still born: 1.0
  Total weaned: 13.1
Sows [1]; 0.1% Bolifor CNF
  Probability of piglet Livability: 89.8
Sows [1]; 0.1% Bolifor CNF, listed as calcium nitrate
  Probability of piglet Livability: numerically higher
Sows [1]; [5]
  Probability Still Born: 6.2%
  Probability born alive: 93.8%
  Probability of piglet mortality from cross fostering (day 4-5)-weaning: 2.0%
  Probability of piglets alive at day 4-5: 92.5%
Sows [1]; [6]
  Probability Still Born: numerically lower
  Probability born alive: numerically higher
Sows [1]; piglets, 0.1% Bolifor CNF
  ADG 0-5: 157 g/day
  ADG 5-weaning: 245.3 g/day
  Average birth weight: 1.36 kg
  Average weight post fostering: 2.30 kg
  Litter weight Pre fostering: 19.8 kg
Sows [1]; piglets, 0.1% Bolifor CNF, calculated, not measured
  Litter weight post fostering: 30.8 kg
Sows [1]; [7]
  Average weight at weaning: 6.71 kg
  Litter weight at weaning: 82.0 kg
Sows [1]; piglets, 0.1% Bolifor CNF, corrected for lactation length, listed as calcium nitrate
  Litter weight at weaning: numerically higher
Sows [2]; [8]
  NBA (Number Born Alive): 16.84 ± 0.170
  TNB (Total Number Born): 17.90 ± 0.460
  NBD (Number Born Death), stillborn piglets: 1.32 ± 0.006
  Birth weight: 21.70 ± 0.614 kg
Sows [2]; [9]
  NBA (Number Born Alive): 16.84
  TNB (Total Number Born): did not differ
  NBD (Number Born Death), stillborn piglets: 1.32
  Birth weight: did not differ
Sows [2]; [10]
  Litter growth, 24 hour to 3 days: 1.80 ± 0.140 kg/day
  Litter growth, Start to 24 hour: 1.21 ± 0.161 kg/day
  Litter growth, Start to 3 days: 3.03 ± 0.234 kg/day
  Piglet weight, 24 hour: 1.41 ± 0.012 kg
  Piglet weight, 3 days: 1.55 ± 0.018 kg
  Piglet weight, Start: 1.32 ± 0.046 kg
  Litter weight, 24 hour: 18.14 kg
  Litter weight, 3 days: 19.93 kg
  Litter weight, Start: 16.70 kg
  Piglet growth, 24 hour to 3 days: 0.140 kg/day
  Piglet growth, Start 3 days: 0.235 kg/day
  Piglet growth, Start to 24 hour: 0.093 kg/day
  Mortality: 1.87
Sows [2]; [11]
  Litter growth, 24 hour to 3 days: no differences were found
  Litter growth, Start to 24 hour: no differences were found
  Litter growth, Start to 3 days: no differences were found
  Piglet weight, 24 hour: did not differ
  Piglet weight, 3 days: did not differ
  Piglet weight, Start: did not differ
  Litter weight, 24 hour: did not differ
  Litter weight, 3 days: did not differ
  Litter weight, Start: did not differ
  Piglet growth, 24 hour to 3 days: no differences were found
  Piglet growth, Start 3 days: no differences were found
  Piglet growth, Start to 24 hour: no differences were found
  Mortality: did not differ
Sows [2]; 0.1% Bolifor CNF, calculated colostrum intake
  Colostrum, CI per piglet: 222.02 g
Sows [2]; 0.1% Bolifor CNF, calculated colostrum intake, listed as Bolifor CNF ®
  Colostrum, CI (Colostrum Intake): 2858.60 g
Sows [2]; 0.1% Bolifor CNF, calculated colostrum intake, listed as Bolifor CNF®
  Colostrum, CI (Colostrum Intake): No differences were found
Sows [2]; parities >4, 0.1% Bolifor CNF in transition feed
  NBD, highest parity group: 1.21
Sows [3]
  Born Alive: 15.8
  Mortality: 10.5%
  Piglets/sow/year: 34.1
  Pregnancy rate: 94.5%
  Total born: 17.3
  Weaning weight: 6.7 kg
Sows [3]; listed as Calcium nitrate
  Piglet Livability: 82.7%
  Piglets Weaned: 14.3
  Still Born: 1.5
Sows [3]; listed as calcium nitrate
  Piglet Livability: increase
  Piglets Weaned: increase
  Still Born: decrease
